What all share (assay type): nucleic-acid assay
Experiment [1] concerns Nucleic Acid. Nature of the experiment: DNA hybridizing activity at 22 bp double stranded DNA assessed as thermal stability of duplexes formed between compound and complimentary dsDNA by measuring melting temperature at 1.5 uM in presence of 7 mM pH 5.5 sodium phosphate buffer containing 140 mM K, 10 mM MgCl2 by UV based melting experiment.
Experiment [2] has as its system Nucleic Acid. Nature of the experiment: DNA hybridizing activity at single stranded DNA assessed as thermal stability of duplexes formed between compound and complimentary ssDNA by measuring melting temperature at 4 uM in presence of 10 mM pH 7.2 sodium phosphate buffer containing 100 mM NaCl by UV based melting experiment.
For experiment [3], the system named is Nucleic Acid. Nature of the experiment: DNA hybridizing activity at single stranded RNA assessed as thermal stability of duplexes formed between compound and complimentary ssRNA by measuring melting temperature at 4 uM in presence of 10 mM pH 7.2 sodium phosphate buffer containing 100 mM NaCl by UV based melting experiment.
Experiment [4] concerns Nucleic Acid. Nature of the experiment: DNA hybridizing activity at single stranded RNA assessed as thermal stability of duplexes formed between compound and complimentary ssRNA by measuring change in melting temperature at 4 uM in presence of 10 mM pH 7.2 sodium phosphate buffer containing 100 mM NaCl by UV based melting experiment relative to untreated control.
Experiment [5] relates to Nucleic Acid. Nature of the experiment: DNA hybridizing activity at single stranded DNA assessed as thermal stability of duplexes formed between compound and complimentary ssDNA by measuring change in melting temperature at 4 uM in presence of 10 mM pH 7.2 sodium phosphate buffer containing 100 mM NaCl by UV based melting experiment relative to untreated control.
The subject of experiment [6] is Nucleic Acid. Nature of the experiment: DNA hybridizing activity at 22 bp double stranded DNA assessed as thermal stability of duplexes formed between compound and complimentary dsDNA by measuring change in melting temperature at 1.5 uM in presence of 7 mM pH 5.5 sodium phosphate buffer containing 140 mM K, 10 mM MgCl2 by UV based melting experiment.

In the case of `Cc1cn([C@H]2C[C@H](OP(=O)(O)OC[C@H]3O[C@@H](n4cc(C)c(=O)[nH]c4=O)C[C@@H]3OP(=O)(O)OC[C@H]3O[C@@H](n4cc(C)c(=O)[nH]c4=O)C[C@@H]3O[P@@](=O)(OC[C@H]3O[C@@H](n4cc(C)c(=O)[nH]c4=O)C[C@@H]3OP(=O)(O)OC[C@H]3O[C@@H](n4cc(C)c(=O)[nH]c4=O)C[C@@H]3OP(=O)(O)OC[C@H]3O[C@@H](n4cc(C)c(=O)[nH]c4=O)C[C@@H]3OP(=O)(O)OC[C@H]3O[C@@H](n4ccc(N)nc4=O)C[C@@H]3OP(=O)(O)OC[C@H]3O[C@@H](n4ccc(N)nc4=O)C[C@@H]3OP(=O)(O)OC[C@H]3O[C@@H](n4ccc(N)nc4=O)C[C@@H]3OP(=O)(O)O)SCCCCCCN)[C@@H](COP(=O)(O)O[C@H]3C[C@H](n4ccc(N)nc4=O)O[C@@H]3COP(=O)(O)O[C@H]3C[C@H](n4ccc(N)nc4=O)O[C@@H]3COP(=O)(O)O[C@H]3C[C@H](n4ccc(N)nc4=O)O[C@@H]3CO)O2)c(=O)[nH]c1=O`, the Tm with Nucleic Acid [1] turned out to be 27 °C; in the experiment with Nucleic Acid [2], 42 °C; with Nucleic Acid [3] it was 43 °C. For the same compound, the shift in melting temperature (ΔTm) with Nucleic Acid [4] was -3 °C; in the experiment on Nucleic Acid [5] it was 0 °C; in the experiment with Nucleic Acid [6], 2 °C.
Consider `Cc1cn([C@H]2C[C@H](OP(=O)(O)OC[C@H]3O[C@@H](n4cc(C)c(=O)[nH]c4=O)C[C@@H]3OP(=O)(O)OC[C@H]3O[C@@H](n4cc(C)c(=O)[nH]c4=O)C[C@@H]3O[P@@](=O)(OC[C@H]3O[C@@H](n4cc(C)c(=O)[nH]c4=O)C[C@@H]3OP(=O)(O)OC[C@H]3O[C@@H](n4cc(C)c(=O)[nH]c4=O)C[C@@H]3OP(=O)(O)OC[C@H]3O[C@@H](n4cc(C)c(=O)[nH]c4=O)C[C@@H]3OP(=O)(O)OC[C@H]3O[C@@H](n4ccc(N)nc4=O)C[C@@H]3OP(=O)(O)OC[C@H]3O[C@@H](n4ccc(N)nc4=O)C[C@@H]3OP(=O)(O)OC[C@H]3O[C@@H](n4ccc(N)nc4=O)C[C@@H]3OP(=O)(O)O)SCCN)[C@@H](COP(=O)(O)O[C@H]3C[C@H](n4ccc(N)nc4=O)O[C@@H]3COP(=O)(O)O[C@H]3C[C@H](n4ccc(N)nc4=O)O[C@@H]3COP(=O)(O)O[C@H]3C[C@H](n4ccc(N)nc4=O)O[C@@H]3CO)O2)c(=O)[nH]c1=O`, for which the figures for the melting temperature (Tm) in the experiment with Nucleic Acid [1], in the experiment with Nucleic Acid [2] and with Nucleic Acid [3] were 29 °C, 45 °C and 45 °C, respectively. Moreover, the ΔTm in the experiment with Nucleic Acid [4] is -1 °C; in the experiment on Nucleic Acid [5], 3 °C; in the experiment with Nucleic Acid [6], 4 °C.
Take `Cc1cn([C@H]2C[C@H](OP(=O)(O)OC[C@H]3O[C@@H](n4cc(C)c(=O)[nH]c4=O)C[C@@H]3OP(=O)(O)OC[C@H]3O[C@@H](n4cc(C)c(=O)[nH]c4=O)C[C@@H]3O[P@](=O)(OC[C@H]3O[C@@H](n4cc(C)c(=O)[nH]c4=O)C[C@@H]3OP(=O)(O)OC[C@H]3O[C@@H](n4cc(C)c(=O)[nH]c4=O)C[C@@H]3OP(=O)(O)OC[C@H]3O[C@@H](n4cc(C)c(=O)[nH]c4=O)C[C@@H]3OP(=O)(O)OC[C@H]3O[C@@H](n4ccc(N)nc4=O)C[C@@H]3OP(=O)(O)OC[C@H]3O[C@@H](n4ccc(N)nc4=O)C[C@@H]3OP(=O)(O)OC[C@H]3O[C@@H](n4ccc(N)nc4=O)C[C@@H]3OP(=O)(O)O)SCCN)[C@@H](COP(=O)(O)O[C@H]3C[C@H](n4ccc(N)nc4=O)O[C@@H]3COP(=O)(O)O[C@H]3C[C@H](n4ccc(N)nc4=O)O[C@@H]3COP(=O)(O)O[C@H]3C[C@H](n4ccc(N)nc4=O)O[C@@H]3CO)O2)c(=O)[nH]c1=O`: the Tm came out at 24 °C with Nucleic Acid [1], 41 °C in the experiment on Nucleic Acid [2] and 43 °C with Nucleic Acid [3]. For the same compound, the figures for the ΔTm in the experiment on Nucleic Acid [4], in the experiment on Nucleic Acid [5] and in the experiment with Nucleic Acid [6] were -3 °C, -1 °C and -2 °C, respectively.
Regarding `Cc1cn([C@H]2C[C@H](OP(=O)(O)OC[C@H]3O[C@@H](n4cc(C)c(=O)[nH]c4=O)C[C@@H]3OP(=O)(O)OC[C@H]3O[C@@H](n4cc(C)c(=O)[nH]c4=O)C[C@@H]3O[P@](=O)(OC[C@H]3O[C@@H](n4cc(C)c(=O)[nH]c4=O)C[C@@H]3OP(=O)(O)OC[C@H]3O[C@@H](n4cc(C)c(=O)[nH]c4=O)C[C@@H]3OP(=O)(O)OC[C@H]3O[C@@H](n4cc(C)c(=O)[nH]c4=O)C[C@@H]3OP(=O)(O)OC[C@H]3O[C@@H](n4ccc(N)nc4=O)C[C@@H]3OP(=O)(O)OC[C@H]3O[C@@H](n4ccc(N)nc4=O)C[C@@H]3OP(=O)(O)OC[C@H]3O[C@@H](n4ccc(N)nc4=O)C[C@@H]3OP(=O)(O)O)SCCCN)[C@@H](COP(=O)(O)O[C@H]3C[C@H](n4ccc(N)nc4=O)O[C@@H]3COP(=O)(O)O[C@H]3C[C@H](n4ccc(N)nc4=O)O[C@@H]3COP(=O)(O)O[C@H]3C[C@H](n4ccc(N)nc4=O)O[C@@H]3CO)O2)c(=O)[nH]c1=O`, the Tm in the experiment with Nucleic Acid [1] was 24 °C; in the experiment with Nucleic Acid [2], 40 °C; with Nucleic Acid [3], 43 °C. The shift in melting temperature (ΔTm) in the experiment with Nucleic Acid [4] was -3 °C; with Nucleic Acid [5], -2 °C; with Nucleic Acid [6], -2 °C.
Consider `Cc1cn([C@H]2C[C@H](OP(=O)(O)OC[C@H]3O[C@@H](n4cc(C)c(=O)[nH]c4=O)C[C@@H]3OP(=O)(O)OC[C@H]3O[C@@H](n4cc(C)c(=O)[nH]c4=O)C[C@@H]3O[P@](=O)(OC[C@H]3O[C@@H](n4cc(C)c(=O)[nH]c4=O)C[C@@H]3OP(=O)(O)OC[C@H]3O[C@@H](n4cc(C)c(=O)[nH]c4=O)C[C@@H]3OP(=O)(O)OC[C@H]3O[C@@H](n4cc(C)c(=O)[nH]c4=O)C[C@@H]3OP(=O)(O)OC[C@H]3O[C@@H](n4ccc(N)nc4=O)C[C@@H]3OP(=O)(O)OC[C@H]3O[C@@H](n4ccc(N)nc4=O)C[C@@H]3OP(=O)(O)OC[C@H]3O[C@@H](n4ccc(N)nc4=O)C[C@@H]3OP(=O)(O)O)SCCN3CCNCC3)[C@@H](COP(=O)(O)O[C@H]3C[C@H](n4ccc(N)nc4=O)O[C@@H]3COP(=O)(O)O[C@H]3C[C@H](n4ccc(N)nc4=O)O[C@@H]3COP(=O)(O)O[C@H]3C[C@H](n4ccc(N)nc4=O)O[C@@H]3CO)O2)c(=O)[nH]c1=O`, for which the Tm turned out to be 24 °C in the experiment with Nucleic Acid [1], 40 °C in the experiment with Nucleic Acid [2] and 44 °C in the experiment with Nucleic Acid [3]. The ΔTm in the experiment on Nucleic Acid [4], in the experiment with Nucleic Acid [5] and in the experiment with Nucleic Acid [6] was -2 °C each time.
Regarding `Cc1cn([C@H]2C[C@H](OP(=O)(O)OC[C@H]3O[C@@H](n4cc(C)c(=O)[nH]c4=O)C[C@@H]3OP(=O)(O)OC[C@H]3O[C@@H](n4cc(C)c(=O)[nH]c4=O)C[C@@H]3O[P@@](=O)(OC[C@H]3O[C@@H](n4cc(C)c(=O)[nH]c4=O)C[C@@H]3OP(=O)(O)OC[C@H]3O[C@@H](n4cc(C)c(=O)[nH]c4=O)C[C@@H]3OP(=O)(O)OC[C@H]3O[C@@H](n4cc(C)c(=O)[nH]c4=O)C[C@@H]3OP(=O)(O)OC[C@H]3O[C@@H](n4ccc(N)nc4=O)C[C@@H]3OP(=O)(O)OC[C@H]3O[C@@H](n4ccc(N)nc4=O)C[C@@H]3OP(=O)(O)OC[C@H]3O[C@@H](n4ccc(N)nc4=O)C[C@@H]3OP(=O)(O)O)SCCCCN)[C@@H](COP(=O)(O)O[C@H]3C[C@H](n4ccc(N)nc4=O)O[C@@H]3COP(=O)(O)O[C@H]3C[C@H](n4ccc(N)nc4=O)O[C@@H]3COP(=O)(O)O[C@H]3C[C@H](n4ccc(N)nc4=O)O[C@@H]3CO)O2)c(=O)[nH]c1=O`, the figures for the melting temperature (Tm) with Nucleic Acid [1], in the experiment with Nucleic Acid [2] and in the experiment on Nucleic Acid [3] were 27 °C, 44 °C and 45 °C, respectively. Moreover, the shift in melting temperature (ΔTm) is -1 °C in the experiment with Nucleic Acid [4], 2 °C in the experiment with Nucleic Acid [5] and 2 °C with Nucleic Acid [6].
Regarding `Cc1cn([C@H]2C[C@H](OP(=O)(O)OC[C@H]3O[C@@H](n4cc(C)c(=O)[nH]c4=O)C[C@@H]3OP(=O)(O)OC[C@H]3O[C@@H](n4cc(C)c(=O)[nH]c4=O)C[C@@H]3O[P@](=O)(OC[C@H]3O[C@@H](n4cc(C)c(=O)[nH]c4=O)C[C@@H]3OP(=O)(O)OC[C@H]3O[C@@H](n4cc(C)c(=O)[nH]c4=O)C[C@@H]3OP(=O)(O)OC[C@H]3O[C@@H](n4cc(C)c(=O)[nH]c4=O)C[C@@H]3OP(=O)(O)OC[C@H]3O[C@@H](n4ccc(N)nc4=O)C[C@@H]3OP(=O)(O)OC[C@H]3O[C@@H](n4ccc(N)nc4=O)C[C@@H]3OP(=O)(O)OC[C@H]3O[C@@H](n4ccc(N)nc4=O)C[C@@H]3OP(=O)(O)O)SCCCCCN)[C@@H](COP(=O)(O)O[C@H]3C[C@H](n4ccc(N)nc4=O)O[C@@H]3COP(=O)(O)O[C@H]3C[C@H](n4ccc(N)nc4=O)O[C@@H]3COP(=O)(O)O[C@H]3C[C@H](n4ccc(N)nc4=O)O[C@@H]3CO)O2)c(=O)[nH]c1=O`, the results for the Tm with Nucleic Acid [1], in the experiment with Nucleic Acid [2] and in the experiment on Nucleic Acid [3] were 24 °C, 39 °C and 42 °C, respectively. For the same compound, the ΔTm is -4 °C in the experiment with Nucleic Acid [4], -3 °C with Nucleic Acid [5] and -2 °C in the experiment on Nucleic Acid [6].
On to `Cc1cn([C@H]2C[C@H](OP(=O)(O)OC[C@H]3O[C@@H](n4cc(C)c(=O)[nH]c4=O)C[C@@H]3OP(=O)(O)OC[C@H]3O[C@@H](n4cc(C)c(=O)[nH]c4=O)C[C@@H]3O[P@](=O)(OC[C@H]3O[C@@H](n4cc(C)c(=O)[nH]c4=O)C[C@@H]3OP(=O)(O)OC[C@H]3O[C@@H](n4cc(C)c(=O)[nH]c4=O)C[C@@H]3OP(=O)(O)OC[C@H]3O[C@@H](n4cc(C)c(=O)[nH]c4=O)C[C@@H]3OP(=O)(O)OC[C@H]3O[C@@H](n4ccc(N)nc4=O)C[C@@H]3OP(=O)(O)OC[C@H]3O[C@@H](n4ccc(N)nc4=O)C[C@@H]3OP(=O)(O)OC[C@H]3O[C@@H](n4ccc(N)nc4=O)C[C@@H]3OP(=O)(O)O)SCCCCCCN)[C@@H](COP(=O)(O)O[C@H]3C[C@H](n4ccc(N)nc4=O)O[C@@H]3COP(=O)(O)O[C@H]3C[C@H](n4ccc(N)nc4=O)O[C@@H]3COP(=O)(O)O[C@H]3C[C@H](n4ccc(N)nc4=O)O[C@@H]3CO)O2)c(=O)[nH]c1=O`, for which the figures for the midpoint of thermal melting (Tm) in the experiment on Nucleic Acid [1], in the experiment on Nucleic Acid [2] and in the experiment on Nucleic Acid [3] were 23 °C, 37 °C and 41 °C, respectively. For the same compound, the ΔTm in the experiment on Nucleic Acid [4] is -5 °C; in the experiment with Nucleic Acid [5], -5 °C; in the experiment with Nucleic Acid [6] it was -3 °C.

By Tm is commonly meant the temperature at the midpoint of the melting transition. As usually defined, the ΔTm is the change in melting temperature against a reference sample.

Source of the values: ChEMBL document CHEMBL2057188, “Hybridizing ability and nuclease resistance profile of backbone modified cationic phosphorothioate oligonucleotides” (Bioorg Med Chem, 2012).
